Test results: patent US10214522B2, “Anti-alphavbeta1 integrin inhibitors and methods of use” (The Regents of the University of California, priority 2015, dated 2019)

Each compound was assayed against T1, αvβ1 integrin (UniProt G3HZ55+P06756) (assay: Cell Adhesion Assay (integrin-specific adhesion, αvβ1)). Settings: CHO cells transfected with human αv adhering to 0.3 μg/ml fibronectin; read-out: Cell Adhesion Assay IC50 range.
T1 construct: expressed in transfected cells; host or cells: CHO cells (elsewhere described as α5-deficient CHO) transfected with human αv
T1 sequence (P06756 31-889 limits assumed): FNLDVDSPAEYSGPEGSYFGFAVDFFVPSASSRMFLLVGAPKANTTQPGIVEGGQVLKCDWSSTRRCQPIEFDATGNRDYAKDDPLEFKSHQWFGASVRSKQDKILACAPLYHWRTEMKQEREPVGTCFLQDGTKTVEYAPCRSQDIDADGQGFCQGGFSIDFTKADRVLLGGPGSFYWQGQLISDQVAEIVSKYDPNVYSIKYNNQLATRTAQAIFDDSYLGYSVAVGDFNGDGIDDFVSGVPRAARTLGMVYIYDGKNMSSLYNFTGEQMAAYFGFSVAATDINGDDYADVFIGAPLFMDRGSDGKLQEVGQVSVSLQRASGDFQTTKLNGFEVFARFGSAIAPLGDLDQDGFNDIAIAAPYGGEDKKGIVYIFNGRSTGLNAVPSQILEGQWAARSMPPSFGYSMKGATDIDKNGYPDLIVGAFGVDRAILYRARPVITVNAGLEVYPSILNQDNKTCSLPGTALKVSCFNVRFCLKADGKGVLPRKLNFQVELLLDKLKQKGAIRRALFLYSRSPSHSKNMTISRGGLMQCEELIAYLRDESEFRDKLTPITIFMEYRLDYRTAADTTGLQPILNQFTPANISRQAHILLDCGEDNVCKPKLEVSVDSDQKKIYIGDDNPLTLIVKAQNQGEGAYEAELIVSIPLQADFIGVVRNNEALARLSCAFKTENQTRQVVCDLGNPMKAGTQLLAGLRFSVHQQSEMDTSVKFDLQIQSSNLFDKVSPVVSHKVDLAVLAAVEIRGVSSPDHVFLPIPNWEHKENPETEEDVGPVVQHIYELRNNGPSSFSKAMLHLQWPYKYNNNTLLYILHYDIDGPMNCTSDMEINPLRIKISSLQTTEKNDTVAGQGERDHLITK
T1 sequence (P06756 891-1048 limits assumed): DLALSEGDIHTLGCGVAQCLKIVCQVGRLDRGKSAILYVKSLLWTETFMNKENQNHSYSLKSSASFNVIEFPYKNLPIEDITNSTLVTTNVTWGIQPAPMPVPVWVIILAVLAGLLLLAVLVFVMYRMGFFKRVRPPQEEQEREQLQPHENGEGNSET
T1 sequence (G3HZ55 21-798): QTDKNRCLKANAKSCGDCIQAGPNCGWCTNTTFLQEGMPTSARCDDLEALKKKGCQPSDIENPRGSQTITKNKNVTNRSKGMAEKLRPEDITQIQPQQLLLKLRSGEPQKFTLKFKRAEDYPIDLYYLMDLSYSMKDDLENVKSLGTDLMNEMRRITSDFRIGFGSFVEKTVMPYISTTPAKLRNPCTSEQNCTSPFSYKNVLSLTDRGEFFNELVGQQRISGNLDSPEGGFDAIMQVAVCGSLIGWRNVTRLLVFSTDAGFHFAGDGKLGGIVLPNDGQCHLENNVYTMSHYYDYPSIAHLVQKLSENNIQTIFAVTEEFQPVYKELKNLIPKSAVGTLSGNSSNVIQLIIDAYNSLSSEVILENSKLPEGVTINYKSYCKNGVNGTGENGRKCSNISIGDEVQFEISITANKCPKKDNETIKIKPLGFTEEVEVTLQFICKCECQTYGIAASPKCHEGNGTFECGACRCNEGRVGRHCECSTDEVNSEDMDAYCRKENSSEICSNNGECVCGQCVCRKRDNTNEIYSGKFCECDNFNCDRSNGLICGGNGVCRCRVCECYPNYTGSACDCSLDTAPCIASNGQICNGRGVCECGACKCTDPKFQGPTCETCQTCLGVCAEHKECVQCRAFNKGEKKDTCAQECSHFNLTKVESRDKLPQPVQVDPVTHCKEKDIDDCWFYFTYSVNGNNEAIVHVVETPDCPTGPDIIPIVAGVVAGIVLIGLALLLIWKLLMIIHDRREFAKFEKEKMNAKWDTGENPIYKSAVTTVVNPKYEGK
Type: cell-based
Experimental: The effects of compounds on cell adhesion mediated by […], α8β1, αvβ1, αvβ3, αvβ5, αvβ6, and αvβ8 are measured using pairs of cell lines and ligands selected to isolate the effect of each individual integrin. For α5β1 we utilize the colon carcinoma cell line, SW480, plated on 0.3 μg/ml fibronectin, for α8β1, we utilize SW480 cells transfected with human α8 adhering to 1 μg/ml recombinant TGFβ1 LAP [5], for αvβ1 we use Chinese Hamster Ovary Cells (CHO cells) transfected with human αv adhering to 0.3 μg/ml fibronectin [6], for αvβ3 we use SW480 cells transfected with human β3, for αvβ5 we use wild type SW480 cells adhering to 0.1 μg/ml vitronectin. For αvβ6 we use SW480 cells transfected with human β6 adhering to 0.01 μg/ml recombinant human TGFβ1 LAP. For αvβ8 we use glioma cell line (SNB19) expressing β8 adhering to 1 μg/ml recombinant human TGFβ1 LAP.
(§1) The effects of the compound on cell adhesion mediated by αvβ1 integrin were measured using Chinese Hamster Ovary Cells (CHO cells) transfected with human αv adhering to 0.3 μg/ml fibronectin. In every case, we confirmed that adhesion could be inhibited by blocking antibodies to αv and β1. Cells were resuspended in DMEM for 30 min at 4° C. with 10-fold dilutions of the compound with a starting concentration of 10 μM. Each sample was then added to triplicate wells of a 96-well plate which had been coated overnight at 4° C. with the relevant ligand, washed, blocked by 1 hr incubation with 1% BSA, and washed again. Cells were allowed to attach for 30-60 min at 37° C. After incubation, non-adherent cells were removed by discarding the media and spinning the plate top-side down at 500 rpm for 5 minutes. Cells were then fixed and stained with 40 ul of 0.5% Crystal violet, 1% Formaldehyde, 20% Methanol for 30 minutes and lysed with 2% Trition-X. Absorbance was measured at 595 nm in a Microplate reader. For all assays, concentration-response curves were constructed by non-linear regression analysis and IC50 values using Graphpad PRISM (ver 6.0).
as §1, with “Integrin specific” for “effects of the compound on cell”, “assays” for “mediated by αvβ1 integrin”, “In every case, we confirmed that adhesion could be inhibited by blocking antibodies to αv and β1.” left out
`COc1cccc(OC)c1C(=O)N[C@@H](Cc1ccc(NC(=O)CCCNc2ccccn2)cc1)C(=O)O` [HIJ-886, (S)-2-(2,6-dimethoxybenzamido)-3-(4-(4-(pyridin-2-ylamino)butanamido)phenyl)propanoic acid] was tested, and the IC50 was 100 to 10000 nM.
With `Cc1cccc(Cl)c1C(=O)N[C@@H](Cc1ccc(NC(=O)CCCNc2ccccn2)cc1)C(=O)O` [HIJ-888, (S)-2-(2-chloro-6-methylbenzamido)-3-(4-(4-(pyridin-2-ylamino)butanamido)phenyl)propanoic acid] the IC50 was 100 to 10000 nM.
Compound `O=C(CCCNc1ccccn1)Nc1ccc(C[C@H](NC(=O)c2c(F)cccc2Br)C(=O)O)cc1` [HIJ-889, (S)-2-(2-bromo-6-fluorobenzamido)-3-(4-(4-(pyridin-2-ylamino)butanamido)phenyl)propanoic acid] has an IC50 of under 100 nM.
`Cc1cccc(C)c1C(=O)N[C@@H](Cc1ccc(NC(=O)CCCNc2ccccn2)cc1)C(=O)O` [HIJ-890, (S)-2-(2,6-dimethylbenzamido)-3-(4-(4-(pyridin-2-ylamino)butanamido)phenyl)propanoic acid] was tested, and the IC50 was under 100 nM.
In the case of `CSc1ccccc1C(=O)N[C@@H](Cc1ccc(NC(=O)CCCNc2ccccn2)cc1)C(=O)O` [HIJ-891, (S)-2-(2-(methylthio)benzamido)-3-(4-(4-(pyridin-2-ylamino)butanamido)phenyl)propanoic acid], the IC50 is reported as 100 to 10000 nM.
`O=C(CCCNc1ccccn1)Nc1ccc(C[C@H](NC(=O)c2cccc(-c3ccccc3)c2)C(=O)O)cc1` [HIJ-892, (S)-2-([1,1′-biphenyl]-3-carboxamido)-3-(4-(4-(pyridin-2-ylamino)butanamido)phenyl)propanoic acid] showed an IC50 of 100 to 10000 nM.
Compound `Cc1ccnc(NCCCC(=O)Nc2ccc(C[C@H](NC(=O)c3c(Cl)cccc3Cl)C(=O)O)cc2)c1` [HU-899] has an IC50 of under 100 nM.
`N=C(N)NCCc1cn(-c2ccc(C[C@H](NC(=O)c3c(Cl)cccc3Cl)C(=O)O)cc2)nn1` [JM-39, (S)-2-(2,6-dichlorobenzamido)-3-(4-(4-(2-guanidinoethyl)-1H-1,2,3-triazol-1-yl)phenyl)propanoic acid] gave an IC50 of 100 to 10000 nM.
`O=C(CCCCNC1=NCCN1)Nc1ccc(C[C@H](NC(=O)c2c(Cl)cccc2Cl)C(=O)O)cc1` [JM-61] showed an IC50 of 100 to 10000 nM.
Work on `N=C(N)NCCCn1cc(-c2ccc(C[C@H](NC(=O)c3c(Cl)cccc3Cl)C(=O)O)cc2)nn1` [JM-141] yielded an IC50 of under 100 nM.
`N=C(N)Nc1ccc2c(c1)C(=O)N(c1ccc(C[C@H](NC(=O)c3c(Cl)cccc3Cl)C(=O)O)cc1)CC2` [JM-175] gave an IC50 of 100 to 10000 nM.
Work on `N=C(N)NCCCc1coc(-c2ccc(C[C@H](NC(=O)c3c(Cl)cccc3Cl)C(=O)O)cc2)n1` [JM-185] yielded an IC50 of 100 to 10000 nM.
In the case of `N=C(N)NCCCc1csc(-c2ccc(C[C@H](NC(=O)c3c(Cl)cccc3Cl)C(=O)O)cc2)n1` [JM-192], the IC50 is reported as 100 to 10000 nM.
With `O=C(N[C@@H](Cc1ccc(-n2cc(CNc3ccccn3)nn2)cc1)C(=O)O)c1c(Cl)cccc1Cl` [JM-230] the IC50 was 100 to 10000 nM.
For `O=C(CCCCNc1ccccn1)Nc1ccc(C[C@H](NC(=O)c2c(Cl)cccc2Cl)C(=O)O)cc1` [YT-43], the IC50 was 100 to 10000 nM.
`O=C(CCCc1ccc2c(n1)NCCC2)Nc1ccc(C[C@H](NC(=O)c2c(Cl)cccc2Cl)C(=O)O)cc1` [YT-101] gave an IC50 of 100 to 10000 nM.
`O=C(CCCNc1ccccn1)Nc1ccc(C[C@H](NC(=O)c2c(Cl)cccc2Cl)C(=O)O)cc1` [YT-103, (S)-2-(2,6-dichlorobenzamido)-3-(4-(4-(pyridin-2-ylamino)butanamido)phenyl)propanoic acid] showed an IC50 of under 100 nM.
In the case of `N=C(N)NCCCC(=O)Nc1ccc(C[C@H](NC(=O)c2c(Cl)cccc2Cl)C(=O)O)cc1` [YT-107], the IC50 is reported as 100 to 10000 nM.
Compound `O=C(CCCCc1ccc2c(n1)NCCC2)Nc1ccc(C[C@H](NC(=O)c2c(Cl)cccc2Cl)C(=O)O)cc1` [YT-115] has an IC50 of 100 to 10000 nM.
`O=C(CCc1ccc2c(n1)NCCC2)Nc1ccc(C[C@H](NC(=O)c2c(Cl)cccc2Cl)C(=O)O)cc1` [YT-119] showed an IC50 of under 100 nM.
